The values that follow come from ChEMBL document CHEMBL1201862, “PubChem BioAssay data set” (2004).

Some test systems named below: EKVX; M14; NCI-H522; NCI-H226; SF-295; SNB-19; K562; IGROV-1; OVCAR-4; LOX IMVI; RPMI-8226; UACC-257; OVCAR-5; UO-31; HOP-92; SK-OV-3; OVCAR-3; ACHN; UACC-62; HL-60.
Holding throughout (assay): NCI-60 cell line screen, 48 h

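Exposure lasted 48 hours, with cells grown in 96-well plates and compounds tested at five concentrations. GI50 is the concentration that inhibits growth by half.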 Calls of active or inactive are those of the source. Cut-off read from the data, not from the text of the source: active = GI50 up to about 1.1 µM and inactive = higher. Where only a bound is given, the exact number is not on record here.

Turning to `C[C@H](C/C=C/C(C)(C)O)[C@H]1CC[C@@]2(C)[C@@H]3CC[C@H]4C(C)(C)[C@@H](O)CC[C@@]45C[C@@]35CC[C@]12C`, the GI50 in the experiment with EKVX is 14.1 µM (inactive); with M14 it was 17.8 µM (inactive); in the experiment on NCI-H522 it was 2.37 µM (inactive); in the experiment with NCI-H226, 17.1 µM (inactive); in the experiment with SF-295, 16.6 µM (inactive); with SNB-19 it was 25.5 µM (inactive). The GI50 in the experiment on K562 is 6.31 µM (inactive); in the experiment with IGROV-1, 22.4 µM (inactive); in the experiment on OVCAR-4, 16.9 µM (inactive); with LOX IMVI, 11.7 µM (inactive); in the experiment with RPMI-8226, 15.8 µM (inactive); with UACC-257, 17.9 µM (inactive). In addition, the GI50 was 14.4 µM (inactive) in the experiment with OVCAR-5; 23.3 µM (inactive) in the experiment with UO-31; 11.3 µM (inactive) in the experiment with HOP-92; 32.1 µM (inactive) in the experiment on SK-OV-3; 50.5 µM (inactive) with OVCAR-3; 6.35 µM (inactive) with ACHN. For the same compound, the GI50 in the experiment with UACC-62 was 26.1 µM (inactive).

As to `CNC(=O)OCc1c2ccncc2c(C)c2c1[nH]c1ccccc12`, the GI50 in the experiment with EKVX was 0.372 µM (active); with M14, 1.18 µM (inactive); with NCI-H522, 0.0646 µM (active); in the experiment on NCI-H226, 0.258 µM (active); with SF-295, 0.292 µM (active); with SNB-19 it was 0.372 µM (active). Further, the GI50 with K562 was 0.275 µM (active); in the experiment on IGROV-1 it was 0.182 µM (active); with OVCAR-4 it was 0.271 µM (active); in the experiment with LOX IMVI it was 0.136 µM (active); in the experiment with RPMI-8226 it was 0.134 µM (active); in the experiment on UACC-257 it was 0.587 µM (active). Also, the GI50 was 0.296 µM (active) in the experiment with OVCAR-5; 0.231 µM (active) in the experiment with UO-31; 0.695 µM (active) in the experiment with HOP-92; 0.288 µM (active) in the experiment with SK-OV-3; 0.28 µM (active) with OVCAR-3; 0.0841 µM (active) with ACHN. Besides, in the experiment with UACC-62, the GI50 was 0.238 µM (active).

As to `c1cncc(CNc2ncn[nH]2)c1`, the GI50 with EKVX, with M14, in the experiment with NCI-H522, in the experiment on NCI-H226, in the experiment on SF-295 and with SNB-19 was > 100 µM (inactive) in each case. Further, the GI50 in the experiment on K562, in the experiment on IGROV-1, in the experiment with OVCAR-4, with LOX IMVI, in the experiment on RPMI-8226 and with UACC-257 was > 100 µM (inactive) throughout. Further, the GI50 in the experiment on OVCAR-5, in the experiment on UO-31, in the experiment with HOP-92, with SK-OV-3, in the experiment on OVCAR-3 and with ACHN was > 100 µM (inactive) each time. Further, the GI50 in the experiment with UACC-62 was > 100 µM (inactive).

`NS(=O)(=O)c1cc2c(cc1Cl)NC(Cc1ccccc1)NS2(=O)=O` (stereo not drawn) [BENZYLHYDROCHLOROTHIAZIDE]: the GI50 in the experiment with EKVX, in the experiment with M14, in the experiment with NCI-H522, in the experiment with NCI-H226, with SF-295 and in the experiment with SNB-19 was > 100 µM (inactive) throughout. Further, the GI50 in the experiment on K562 is 63.1 µM (inactive); in the experiment with IGROV-1 it was > 100 µM (inactive); in the experiment with OVCAR-4, > 100 µM (inactive); with LOX IMVI, 99.8 µM (inactive); in the experiment with RPMI-8226 it was 53.1 µM (inactive); in the experiment on UACC-257, > 100 µM (inactive). The GI50 in the experiment on OVCAR-5, in the experiment on UO-31, in the experiment on HOP-92, in the experiment on SK-OV-3, in the experiment on OVCAR-3 and in the experiment with ACHN was > 100 µM (inactive) each time. In the experiment with UACC-62, the GI50 is > 100 µM (inactive).

As for `CN1COc2c(n(C)c(=O)[nH]c2=O)C1`, the GI50 with HL-60 was 24.4 µM (inactive); in the experiment with EKVX, > 100 µM (inactive); in the experiment with M14, > 100 µM (inactive); with NCI-H522, > 100 µM (inactive); in the experiment on NCI-H226, > 100 µM (inactive); in the experiment with SF-295, > 100 µM (inactive). Further, the GI50 is > 100 µM (inactive) in the experiment on SNB-19; > 100 µM (inactive) in the experiment with K562; > 100 µM (inactive) in the experiment with IGROV-1; > 100 µM (inactive) in the experiment with OVCAR-4; 26.1 µM (inactive) in the experiment on RPMI-8226; > 100 µM (inactive) with UACC-257. For the same compound, the GI50 in the experiment on OVCAR-5, in the experiment with UO-31, in the experiment with HOP-92, with SK-OV-3, with OVCAR-3 and in the experiment with ACHN was > 100 µM (inactive) throughout. The GI50 in the experiment on UACC-62 was > 80 µM (inactive).

For `CC12CC(C/C1=N/O)C(C)(C)C2` (stereo not drawn), the GI50 in the experiment on HL-60, with EKVX, in the experiment with M14, in the experiment on NCI-H522, in the experiment with NCI-H226 and with SF-295 was > 100 µM (inactive) each time. For the same compound, the GI50 with SNB-19, with K562, with IGROV-1, in the experiment with OVCAR-4, in the experiment on UACC-257 and in the experiment on OVCAR-5 was > 100 µM (inactive) each time. Besides, the GI50 in the experiment with UO-31, with HOP-92, with SK-OV-3, in the experiment on OVCAR-3, in the experiment on ACHN and with UACC-62 was > 100 µM (inactive) in each case.

On to `COC(=O)[C@H]1CO[C@H]2C/C(C)=C/CC/C(C)=C/CC[C@@]3(C)O[C@@H]3C[C@H]21`, for which the GI50 in the experiment on HL-60 was 10.7 µM (inactive); with EKVX, 19.5 µM (inactive); in the experiment on M14 it was 16.3 µM (inactive); in the experiment with NCI-H522, 8.79 µM (inactive); in the experiment with NCI-H226, 12 µM (inactive); in the experiment on SF-295, 17.9 µM (inactive). Moreover, the GI50 with SNB-19 is > 50 µM (inactive); in the experiment on K562, 7.69 µM (inactive); in the experiment on IGROV-1, 16 µM (inactive); with OVCAR-4, 9.48 µM (inactive); in the experiment on RPMI-8226, 14.1 µM (inactive); with UACC-257, 18.4 µM (inactive). Further, the GI50 is > 50 µM (inactive) with OVCAR-5; 13.4 µM (inactive) in the experiment with UO-31; 17.5 µM (inactive) with HOP-92; 29.9 µM (inactive) with SK-OV-3; 10.1 µM (inactive) in the experiment on OVCAR-3; 17.5 µM (inactive) with ACHN. In addition, the GI50 with UACC-62 was 8.87 µM (inactive).

For `CN1C(=O)C(=CNc2ccc(Cl)cc2Cl)C(=O)N(C)C1=O`, the GI50 with EKVX, with M14, in the experiment on NCI-H522, with NCI-H226, in the experiment on SF-295 and with SNB-19 was > 100 µM (inactive) each time. Further, the GI50 with K562, with IGROV-1, in the experiment on OVCAR-4, in the experiment with LOX IMVI, with RPMI-8226 and with UACC-257 was > 100 µM (inactive) each time. Besides, the GI50 in the experiment with OVCAR-5, in the experiment with UO-31, in the experiment with HOP-92, in the experiment on SK-OV-3, with OVCAR-3 and with ACHN was > 100 µM (inactive) in each case. The GI50 in the experiment with UACC-62 was > 100 µM (inactive).

Regarding `CSc1nc(O)c(C#N)c(-c2ccccc2)n1`, the GI50 was > 100 µM (inactive) in the experiment on HL-60; > 100 µM (inactive) in the experiment on EKVX; > 100 µM (inactive) with M14; 53.1 µM (inactive) in the experiment on NCI-H522; > 100 µM (inactive) with NCI-H226; > 100 µM (inactive) in the experiment with SF-295. Also, the GI50 with SNB-19, in the experiment on K562, in the experiment on IGROV-1, with OVCAR-4, with RPMI-8226 and with UACC-257 was > 100 µM (inactive) in each case. The GI50 in the experiment on OVCAR-5 was > 100 µM (inactive); in the experiment on UO-31, 78.3 µM (inactive); with HOP-92, 97.5 µM (inactive); with SK-OV-3, > 100 µM (inactive); with OVCAR-3 it was > 100 µM (inactive); in the experiment with ACHN, > 100 µM (inactive). The GI50 in the experiment with UACC-62 was > 100 µM (inactive).

For `Cc1ccc(-c2n[nH]c(=O)n2/N=C\c2ccccc2O)cc1`, the GI50 with HL-60, with EKVX, in the experiment with M14, with NCI-H522, with NCI-H226 and with SF-295 was > 100 µM (inactive) in each case. Further, the GI50 in the experiment with SNB-19, in the experiment with K562, in the experiment with IGROV-1, in the experiment on OVCAR-4, in the experiment on RPMI-8226 and in the experiment on UACC-257 was > 100 µM (inactive) in each case. Also, the GI50 was > 100 µM (inactive) in the experiment on OVCAR-5; > 100 µM (inactive) with UO-31; > 100 µM (inactive) with HOP-92; 81.3 µM (inactive) in the experiment on SK-OV-3; > 100 µM (inactive) in the experiment on OVCAR-3; > 100 µM (inactive) in the experiment with ACHN.
